Several values for one entry are separate records, joined by “and”; a condition that tells them apart may be missing. Equal values may be shown once. Read-outs that look alike come from different tables or passages of the source.
Experiments:
[1] = system: astrocytoma cells; assay: Proliferation assay, 3H-thymidine incorporation; format: cell-based, human; conditions: 24 hour incubation, vs untreated control
Procedure: Proliferation was studied quantitatively by determining incorporation of ^3H-thymidine. In brief, cells were incubated for 24 hours in the continuous presence or absence of Ara-C (cytosine arabinoside, 10 μM), DIDS (200 μM), DNDS (200 μM), zinc (200 μM) or chlorotoxin (600 nM). Cells were incubated with 1 μCi/ml radiolabelled thymidine ([methyl-^3H]thymidine) for the final 4 hours (at 37° C.). Culture dishes were rinsed three times with ice-cold PBS and solublized with 0.3N NaOH for 30 minutes at 37° C. One aliquot ([…]) was used for cell protein determination using the bicinchroninic assay (BCA; Pierce Rockford, Ill.). The remaining cell suspension was mixed with Ultima Gold, and radioactivity was determined with a scintillation counter. The results were expressed as cpm/μg protein.
Given that these Cl^− currents were consistently present in all astrocytoma cells tested from both primary cultures of surgical specimens and from established human astrocytoma cell lines, whether Cl^− currents influence astrocytoma proliferation was examined. Although the effects of Cl^− channel blockade on cell proliferation have been reported in Schwann cells (40) and in B lymphocytes (7), the importance of Cl^− ion channels in glia cells has never been shown. Cells were cultured in the continuous presence of the anti-mitotic agent Ara-C (10 μM), DIDS (200 μM), DNDS (200 μM), Zinc (200 μM), or chlorotoxin (600 nM) and compared the rate of proliferation to untreated (control) sister cultures. Cells were treated at 2 days in culture (DIC) and proliferation was assayed 24 hours later, at 3 DIC, a period of high proliferation of untreated control cultures. As expected, incubation in the anti-mitotic agent Ara-C led to a 70% decrease in proliferation (SD=1.3309, N=17).

[2] = system: Glioma Chloride Channel (GCC); format: cell-based, human; conditions: for reversibility of current block: after bath application, short exposure times for DIDS and DNDS; for IC50: electrophysiologically determined, read-out: IC50 for inhibition of GCC currents
Excerpt: Current and voltage recordings were obtained using standard whole-cell patch-clamp techniques with an Axopatch-1D amplifier (Axon Instruments). Patch-pipettes were made from thin-walled borosilicate glass (WPI, TW150F-40) o.d. 1.5 mm, i.d. 1.2 mm and were filled with a solution containing (in mM): KCl 145, MgCl2 1, CaCl2 0.2, EGTA 10, Hepes 10, pH adjusted to 7.4 using Tris, unless otherwise noted. Pipettes were not fire-polished and typically had resistances between 2-5MΩ. Cells were continuously superperfused with saline solution, allowing for rapid (<30 seconds) exchange of bath volume. The standard bath solution contained, in mM: NaCl 122.6, KCl 5, MgCl2 1.2, CaCl2 1.0, Na2HPO4 2.0, NaH2PO4 0.4, NaHCO3 25.0, Na2SO4 1.2, Glucose 10.5 (bubbled with 5% CO2/95% O2). Drugs used to block ionic conductances were prepared freshly as stock solutions for each experiment and added to bath solution. Osmolality was measured with a vapor pressure osmometer (Wescor, Logan, Utah) and adjusted to 308-312 mOsms.
For whole-cell recordings, cell capacitance compensation and series resistance compensation were used to minimize voltage errors. The amplifier reading of capacitance was used as the value for the whole-cell membrane capacitance. Series resistances, monitored at regular intervals throughout each experiment, were usually 5-10 MΩ, and series resistance compensation was typically set to ˜80%. Entrance potential, read from the amplifier at the time of entering the whole-cell configuration, was used to determine each cell's resting potential. Voltage-clamp recordings were used to search for voltage-activated currents and stimulation profiles were altered to fully activate chloride channels (pulses from −105 to 195 mV). Where indicated, P/4 leak subtraction was obtained using hyperpolarizing voltage steps to obtain leak currents. Current reversal potential (voltage at which I=0) was determined from IV plots in which tail current amplitudes were plotted as a function of voltage. Effects of channel blockers were assessed by comparing current traces, entrance potential, and reversal potential prior to and following drug application. Snap photographs were taken of each recorded cell using a CCD camera and a video printer for cataloging of cell size, location, and morphology. Recordings were made at room temperature, typically 20-25° C.
Chlorotoxin is a protein having 36 amino acids that is derived from scorpion venom toxin that was originally described as a blocker of small conductance Cl^− channels in epithelial cells (8).
For the following studies, the electrophysiology format was as follows: standard current and voltage recordings were obtained using the whole-cell patch-clamp technique with an Axopatch-1D amplifier (Axon Instruments). Cells were continuously superperfused with bicarbonate-buffered saline at room temperature containing, in mM: NaCl 122.6, KCl 5, MgCl2 1.2, CaCl2 1.0, Na2HPO4 2.0, NaH2PO4 0.4, NaHCO3 25.0, Na2SO4 1.2, Glucose 10.5 (bubbled with 5% CO2). Electrodes (WPI, TW150F-40) o.d. 1.5 mm, i.d. 1.2 mm were filled with (in mM): KCl 145, MgCl2 1, CaCl2 0.2, EGTA 10, Hepes 10, pH adjusted to 7.4 using Tris, unless otherwise noted. Entrance potential, read from the amplifier at the time of entering the whole-cell configuration, was used to determine each cell's resting potential. Voltage-clamp recordings were used to search for voltage-activated currents and stimulation profiles were altered to fully activate chloride channels (pulses from −120 to 120 mV).

[3] = system: glioma cells; assay: Immunotoxin (saporin) killing targeted to the Ctx binding site; format: cell-based, human; conditions: pre-treatment of cultures with 6 μM
Procedure: FIG. 19 show the glioma cells were exposed to 600 nM Ctx-GST followed by a mouse aGST and a goat anti-mouse antibody conjugated to saporin.
Using this approach, glioma cells were first treated with Ctx-GST, followed by a mouse anti-GST monoclonal antibody and lastly a goat anti-mouse antibody conjugated to saporin.

[4] = system: normal human glial cells; assay: 125[I]-chlorotoxin binding to non-tumor cells; conditions: normal human glial cells and mixed brain cell cultures
Procedure: Therefore, binding affinity was determined using (^125[I]-Ctx) radiolabeled with ^125[I]-sodium iodide by the chloramine-T method.

[5] = applied to the cytosolic face, 200 μM

O=[N+]([O-])c1ccc(C=Cc2ccc([N+](=O)[O-])cc2S(=O)(=O)O)c(S(=O)(=O)O)c1 [DNDS, 4,4′-Dinitrostilbene-2,2′-disulfonic acid]
decrease in proliferation (3H-thymidine incorporation) ([1]; 200 μM): 38.2% | reversibility of current block [2]: partly reversible | block of currents [2, 5]: 62%

[Cd] [cadmium]
block of currents ([2]; 25 mM as printed): 42% | decrease in peak currents ([2]; bath application of 25 μM): 42%±18.5

glutathione-S-transferase [GST]
reduction in Cl− currents [2]: ineffective

Nc1ccn([C@@H]2O[C@H](CO)[C@@H](O)[C@@H]2O)c(=O)n1 [Ara-C, cytosine arabinoside]
decrease in proliferation (3H-thymidine incorporation) ([1]; 10 μM): 70%

[Zn] [zinc]
decrease in proliferation (3H-thymidine incorporation) ([1]; 200 μM): 72.6%

chlorotoxin
increase in proliferation (3H-thymidine incorporation) ([1]; 600 nM): 37.8% and 37% | reversibility of current block [2]: partially reversible | block of Cl− currents ([2]; applied to the cytoplasmic face, 2.5 μM): 60.44% | decrease of outward currents ([2]; bath application of 590 nM, STTG1 cells, voltage steps −105 to +195 mV): 81% | IC50 ([2]; listed as Ctx): ~950 nM | IC50 [2]: 950 nM | prevention of immunotoxin cell death [3]: largely prevented | specific binding [4]: no specific Ctx binding

O=S(=O)(O)c1cc(N=C=S)ccc1C=Cc1ccc(N=C=S)cc1S(=O)(=O)O [DIDS, 4,4′-Diisothiocyanostilbene-2,2′-disulfonic acid]
decrease in proliferation (3H-thymidine incorporation) ([1]; 200 μM): 16.4% | reversibility of current block [2]: partly reversible | block of currents [2, 5]: 50%±10.9
